Drawing on patent US11970494B2, “6-heteroaryloxy benzimidazoles and azabenzimidazoles as JAK2 inhibitors” (Ajax Therapeutics, Inc., priority 2021, dated 2024), this text covers Kd for 20 compounds.

Some results are limits rather than exact numbers.

In one assay the target is T1, JAK2 (JH1 domain-catalytic, Y1007F,Y1008F) kinase (Homo sapiens, UniProt O60674, Y1007F/Y1008F).
T1 construct: made in house; host or cells: transiently transfected HEK293 cells
T1 sequence (O60674 849-1124 Y1007F/Y1008F limits assumed): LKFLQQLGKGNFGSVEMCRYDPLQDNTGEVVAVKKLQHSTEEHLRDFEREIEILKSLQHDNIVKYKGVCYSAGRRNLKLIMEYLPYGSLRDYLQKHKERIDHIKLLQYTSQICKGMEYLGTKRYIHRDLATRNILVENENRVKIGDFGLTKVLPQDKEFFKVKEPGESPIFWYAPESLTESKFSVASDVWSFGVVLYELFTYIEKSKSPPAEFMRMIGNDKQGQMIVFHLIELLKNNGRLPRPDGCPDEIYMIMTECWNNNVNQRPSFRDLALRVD
Briefly: JAK2 Binding Assay (JAK2 JH1 Domain Binding Assay).
Conditions: not given
`Cn1cc(C(F)(F)F)cc(Nc2nc3ncc(Oc4ccnc(NC(=O)CF)c4)c(C#N)c3n2C)c1=O` [Example I-84, N-(4-((7-cyano-1-methyl-2-((1-methyl-2-oxo-5-(trifluoromethyl)-1,2-dihydropyridin-3-yl)amino)-1H-imidazo[4,5-b]pyridin-6-yl)oxy)pyridin-2-yl)-2-fluoroacetamide] registered a Kd of under 10 nM.

Staying with this assay, now noted: JAK2 JH1 domain binding, qPCR detection; read-out: JAK2 Kd.
For the compound `CC(=O)Nc1cc(Oc2cnc3nc(Nc4cc([C@@H]5CCOC5)nc(C(F)(F)F)c4)n(C)c3c2C#N)ccn1` (single isomer, unassigned) [Example I-95-ii], the Kd was under 10 nM.

In the case of `Cn1cc(C(F)(F)F)cc(Nc2nc3ncc(Oc4ccnc(NC(=O)OCCO)c4)c(C#N)c3n2C)c1=O` [Example I-20, 2-Hydroxyethyl(4-((7-cyano-1-methyl-2-((1-methyl-2-oxo-5-(trifluoromethyl)-1,2-dihydropyridin-3-yl)amino)-1H-imidazo[4,5-b]pyridin-6-yl)oxy)pyridin-2-yl)carbamate], the Kd is under 10 nM.

Turning to `Cn1cc(C(F)(F)F)cc(Nc2nc3ncc(Oc4ccnc(NC(=O)OC5COC5)c4)c(C#N)c3n2C)c1=O` [Example I-16, Oxetan-3-yl(4-((7-cyano-1-methyl-2-((1-methyl-2-oxo-5-(trifluoromethyl)-1,2-dihydropyridin-3-yl)amino)-1H-imidazo[4,5-b]pyridin-6-yl)oxy)pyridin-2-yl)carbamate], the Kd was under 10 nM.

As to `Cn1cc(C(F)(F)F)cc(Nc2nc3ncc(Oc4ccnc(NC(=O)N5CC(O)C5)c4)c(C#N)c3n2C)c1=O` [Example I-8, N-(4-((7-cyano-1-methyl-2-((1-methyl-2-oxo-5-(trifluoromethyl)-1,2-dihydropyridin-3-yl)amino)-1H-imidazo[4,5-b]pyridin-6-yl)oxy)pyridin-2-yl)hydroxyazetidine-1-carboxamide], the Kd was under 10 nM.

For `CN1CCn2nc(Nc3nc4ncc(Oc5ccnc(NC(=O)O[C@H]6CCOC6)c5)c(Cl)c4n3C)cc2C1=O` [Example I-55, (S)-tetrahydrofuran-3-yl(4-((7-chloro-1-methyl-2-((5-methyl-4-oxo-4,5,6,7-tetrahydropyrazolo[1,5-a]pyrazin-2-yl)amino)-1H-imidazo[4,5-b]pyridin-6-yl)oxy)pyridinyl)carbamate], the Kd was 1000 to 5000 nM.

In the case of `CC(=O)Nc1cc(Oc2cnc3nc(Nc4cc(OC5CN(C)C5)cc(C(F)(F)F)c4)n(C)c3c2Cl)ccn1` [Example I-103, N-(4-((7-chloro-1-methyl-2-((3-((1-methylazetidin-3-yl)oxy)-5-(trifluoromethyl)phenyl)amino)-1H-imidazo[4,5-b]pyridin-6-yl)oxy)pyridin-2-yl)acetamide], the Kd is under 10 nM.

In the case of `Cn1cc(C(F)(F)F)cc(Nc2nc3ncc(Oc4ccnc(NC(=O)NC5COC5)c4)c(C#N)c3n2C)c1=O` [Example I-123, 1-(4-((7-cyano-1-methyl-2-((1-methyl-2-oxo-5-(trifluoromethyl)-1,2-dihydropyridin-3-yl)amino)-1H-imidazo[4,5-b]pyridin-6-yl)oxy)pyridin-2-yl)-3-(oxetan-3-yl)urea], the Kd was under 10 nM.

In the case of `Cn1c(Nc2cc3n(n2)CCC32CCC2)nc2ncc(Oc3ccnc(NC(=O)O[C@@H]4CCOC4)c3)c(C#N)c21` [Example I-121, (R)-tetrahydrofuran-3-yl (4-((7-cyano-2-((5′,6′-dihydrospiro[cyclobutane-1,4′-pyrrolo[1,2-b]pyrazol]-2′-yl)amino)-1-methyl-1H-imidazo[4,5-b]pyridin-6-yl)oxy)pyridin-2-yl)carbamate], the Kd was under 10 nM.

For `Cn1c(Nc2cc3n(n2)CCCC3(F)F)nc2ncc(Oc3ccnc(NC(=O)O[C@@H]4CCOC4)c3)c(C#N)c21` [Example I-37, (R)-tetrahydrofuran-3-yl(4-((7-cyano-2-((4,4-difluoro-4,5,6,7-tetrahydropyrazolo[1,5-a]pyridin-2-yl)amino)-1-methyl-1H-imidazo[4,5-b]pyridin-6-yl)oxy)pyridin-2-yl)carbamate], the Kd is under 10 nM.

For the compound `[2H]C([2H])([2H])n1cc(C(F)(F)F)cc(Nc2nc3ncc(Oc4ccnc(NC(C)=O)c4)c(Cl)c3n2C)c1=O` [Example I-82, N-(4-((7-chloro-1-methyl-2-((1-(methyl-d3)-2-oxo-5-(trifluoromethyl)-1,2-dihydropyridin-3-yl)amino)-1H-imidazo[4,5-b]pyridin-6-yl)oxy)pyridin-2-yl)acetamide], the Kd is under 10 nM.

Take `Cn1c(Nc2cc3n(n2)CCC32CCC2)nc2ncc(Oc3ccnc(NC(=O)O[C@H]4CCOC4)c3)c(C#N)c21` [Example I-120, (S)-tetrahydrofuran-3-yl(4-((7-cyano-2-((5′,6′-dihydrospiro[cyclobutane-1,4′-pyrrolo[1,2-b]pyrazol]-2′-yl)amino)-1-methyl-1H-imidazo[4,5-b]pyridin-6-yl)oxy)pyridin-2-yl)carbamate]: the Kd is under 10 nM.

As for `CC(=O)Nc1cc(Oc2cnc3nc(Nc4cc(C(F)(F)F)n(C5CC6(COC6)C5)n4)n(C)c3c2Cl)ccn1` [Example I-98, N-(4-((2-((1-(2-oxaspiro[3.3]heptan-6-yl)-5-(trifluoromethyl)-1H-pyrazol-3-yl)amino)-7-chloro-1-methyl-1H-imidazo[4,5-b]pyridin-6-yl)oxy)pyridin-2-yl)acetamide], the Kd is under 10 nM.

As for `CC(=O)Nc1cc(Oc2cnc3nc(Nc4cc5n(n4)CCCC5(F)F)n(C)c3c2Cl)ccn1` [Example I-92, N-(4-((7-chloro-2-((4,4-difluoro-4,5,6,7-tetrahydropyrazolo[1,5-a]pyridin-2-yl)amino)-1-methyl-1H-imidazo[4,5-b]pyridin-6-yl)oxy)pyridin-2-yl)acetamide], the Kd is under 10 nM.

Regarding `COC(=O)Nc1cc(Oc2cnc3nc(Nc4cc5n(n4)CCOCC5(C)C)n(C)c3c2C#N)ccn1` [Example I-68, methyl(4-((7-cyano-2-((4,4-dimethyl-4,5,7,8-tetrahydropyrazolo[1,5-d][1,4]oxazepin-2-yl)amino)-1-methyl-1H-imidazo[4,5-b]pyridin-6-yl)oxy)pyridin-2-yl)carbamate], the Kd was under 10 nM.

As to `CC(=O)Nc1cc(Oc2cnc3nc(Nc4cc([C@H]5CCCN5C)cc(C(F)(F)F)c4)n(C)c3c2Cl)ccn1` (single isomer, unassigned) [Example I-102-a], the Kd was under 10 nM.

For `CC(=O)Nc1cc(Oc2cnc3nc(Nc4cc(C(F)(F)F)n(C5CC6(COC6)C5)n4)n(C)c3c2C#N)ccn1` [Example I-106, N-(4-((2-((1-(2-oxaspiro[3.3]heptan-6-yl)-5-(trifluoromethyl)-1H-pyrazol-3-yl)amino)-7-cyano-1-methyl-1H-imidazo[4,5-b]pyridin-6-yl)oxy)pyridin-2-yl)acetamide], the Kd lay in the range of 10 to 50 nM.

`CC(=O)Nc1cc(Oc2cnc3nc(Nc4ccc([C@@H]5CCCN5C)c(C(F)(F)F)c4)n(C)c3c2Cl)ccn1` (single isomer, unassigned) [Example I-108-b]: the Kd is under 10 nM.

Regarding `Cn1cc(C(F)(F)F)cc(Nc2nc3ncc(Oc4ccnc(NC(=O)C[C@H]5CCCCO5)c4)c(C#N)c3n2C)c1=O` [Example I-74-b], the Kd is under 10 nM.

On to `CNC(=O)Nc1cc(Oc2cnc3nc(Nc4cc5n(n4)CCCC5(F)F)n(C)c3c2C#N)ccn1` [Example I-27, 1-(4-((7-cyano-2-((4,4-difluoro-4,5,6,7-tetrahydropyrazolo[1,5-a]pyridin-2-yl)amino)-1-methyl-1H-imidazo[4,5-b]pyridin-6-yl)oxy)pyridin-2-yl)-3-methylurea], for which the Kd is under 10 nM.

As a reminder, the Kd is a measure of binding affinity in units of concentration.
